Laboratory results published in ChEMBL document CHEMBL1126487, “Induction of reversible protein-linked DNA breaks in human osteogenic sarcoma cells by novel cytocidal colchicine derivatives which inhibit DNA topoisomerase II in vitro: Absence of cross-resistance in a colchicine-resistant sub-clone” (Bioorg Med Chem Lett, 1993).

Tests used:
[1] = tested on: HOS; experiment: Effective concentration required to inhibit growth of sub clone Hos colR cells; type: functional, cell-based; conditions: Homo sapiens
[2] = Toxicity against human Osteogenic sarcoma (Hos)cells; conditions: read-out: LD50 (the source's name)

Compound	EC50 [1] [µM]	CC50 [2] [µM]
O=C(N[C@H]1CCc2cc(O)c(O)c(O)c2-c2ccc(=O)c(O)cc21)c1cc(O)c(O)c(O)c1	28	18
O=C(N[C@H]1CCc2cc(O)c(O)c(O)c2-c2ccc(=O)c(O)cc21)C(F)(F)F	26	14
